# Test results published in PubChem BioAssay AID1259407 (Chemical Carcinogenesis Research Information System (CCRIS), 2018).
# Active and inactive are the calls of the source. The rule behind the calls is not given here.
# Tested on: CCRIS mutagenicity, Ames/micronucleus/aberration tests
# Experiment: CCRIS mutagenicity studies
smiles,measurement,setting,value
CN(C)c1ccc(/C=C/c2ccccc2)cc1,mutagenic call,"Test System: AMES SALMONELLA TYPHIMURIUM, Strain/Indicator: TA98, Metabolic Activation: HAMSTER, LIVER, S-9, AROCLOR 1254, Method: STANDARD PLATE",active; positive
same,mutagenic call,"Test System: AMES SALMONELLA TYPHIMURIUM, Strain/Indicator: TA98, Metabolic Activation: HAMSTER, LIVER, S-9, Method: PREINCUBATION (PRIVAL METHOD)",active; positive
same,mutagenic call,"Test System: AMES SALMONELLA TYPHIMURIUM, Strain/Indicator: TA98, Metabolic Activation: RAT, LIVER, S-9, AROCLOR 1254, HAMSTER, LIVER, S-9, AROCLOR 1254, Method: STANDARD PLATE",active; positive
same,mutagenic call,"Test System: AMES SALMONELLA TYPHIMURIUM, Strain/Indicator: TA98, Metabolic Activation: RAT, LIVER, S-9, KC500 OR PHENOBARBITAL, Method: LIQUID SUSPENSION",active; positive
same,mutagenic call,"Test System: AMES SALMONELLA TYPHIMURIUM, Strain/Indicator: TA100, Metabolic Activation: HAMSTER, LIVER, S-9, AROCLOR 1254 (10%), Method: STANDARD PLATE",active; positive
same,mutagenic call,"Test System: AMES SALMONELLA TYPHIMURIUM, Strain/Indicator: TA100, Metabolic Activation: HAMSTER, LIVER, S-9, Method: PREINCUBATION (PRIVAL METHOD)",active; positive
same,mutagenic call,"Test System: AMES SALMONELLA TYPHIMURIUM, Strain/Indicator: TA100, Metabolic Activation: RAT, LIVER, S-9, AROCLOR 1254, HAMSTER, LIVER, S-9, AROCLOR 1254, Method: STANDARD PLATE",active; positive
same,mutagenic call,"Test System: AMES SALMONELLA TYPHIMURIUM, Strain/Indicator: TA100, Metabolic Activation: RAT, LIVER, S-9, KC500 OR PHENOBARBITAL, Method: LIQUID SUSPENSION",active; positive
same,mutagenic call,"Test System: AMES SALMONELLA TYPHIMURIUM, Strain/Indicator: TA100, Metabolic Activation: RAT, LIVER, S-9, PHENOBARBITAL, Method: STANDARD PLATE",active; positive
same,mutagenic call,"Test System: AMES SALMONELLA TYPHIMURIUM, Strain/Indicator: TA1538, Metabolic Activation: RAT, LIVER, S-9, AROCLOR 1254, HAMSTER, LIVER, S-9, AROCLOR 1254, Method: STANDARD PLATE",active; positive
same,mutagenic call,"Test System: AMES SALMONELLA TYPHIMURIUM, Strain/Indicator: TA1538, Metabolic Activation: RAT, LIVER, S-9, PHENOBARBITAL, Method: STANDARD PLATE",active; positive
same,mutagenic call,"Test System: Mouse lymphoma, Strain/Indicator: L5178Y (tk+/tk-), Metabolic Activation: None, Method: Suspension/plate",inactive; inconclusive (pevious evaluation negative)
same,mutagenic call,"Test System: Mouse lymphoma, Strain/Indicator: L5178Y (tk+/tk-), Metabolic Activation: Rat, Liver, S-9, Aroclor 1254, Method: Suspension/plate",active; positive
Cc1c(N)c(=O)n(-c2ccccc2)n1C,mutagenic call,"Test System: AMES SALMONELLA TYPHIMURIUM, Strain/Indicator: TA97, Metabolic Activation: NONE, Method: STANDARD PLATE",active; positive
same,mutagenic call,"Test System: AMES SALMONELLA TYPHIMURIUM, Strain/Indicator: TA97, Metabolic Activation: RAT, LIVER, S-9, AROCLOR 1254, Method: STANDARD PLATE",active; positive
same,mutagenic call,"Test System: AMES SALMONELLA TYPHIMURIUM, Strain/Indicator: TA97A, Metabolic Activation: RAT, LIVER, S-9, AROCLOR 1254, Method: STANDARD PLATE",active; positive
same,mutagenic call,"Test System: AMES SALMONELLA TYPHIMURIUM, Strain/Indicator: TA98, Metabolic Activation: NONE, Method: STANDARD PLATE",inactive; negative
same,mutagenic call,"Test System: AMES SALMONELLA TYPHIMURIUM, Strain/Indicator: TA98, Metabolic Activation: RAT, LIVER, S-9, AROCLOR 1254, Method: STANDARD PLATE",inactive; negative
same,mutagenic call,"Test System: AMES SALMONELLA TYPHIMURIUM, Strain/Indicator: TA100, Metabolic Activation: NONE, Method: STANDARD PLATE",inactive; negative
same,mutagenic call,"Test System: AMES SALMONELLA TYPHIMURIUM, Strain/Indicator: TA100, Metabolic Activation: RAT, LIVER, S-9, AROCLOR 1254, Method: STANDARD PLATE",inactive; negative
same,mutagenic call,"Test System: AMES SALMONELLA TYPHIMURIUM, Strain/Indicator: TA102, Metabolic Activation: NONE, Method: STANDARD PLATE",inactive; negative
same,mutagenic call,"Test System: AMES SALMONELLA TYPHIMURIUM, Strain/Indicator: TA102, Metabolic Activation: RAT, LIVER, S-9, AROCLOR 1254, Method: STANDARD PLATE",inactive; negative
same,mutagenic call,"Test System: AMES SALMONELLA TYPHIMURIUM, Strain/Indicator: TA104, Metabolic Activation: NONE, Method: STANDARD PLATE",inactive; negative
same,mutagenic call,"Test System: AMES SALMONELLA TYPHIMURIUM, Strain/Indicator: TA104, Metabolic Activation: RAT, LIVER, S-9, AROCLOR 1254, Method: STANDARD PLATE",inactive; negative
same,mutagenic call,"Test System: AMES SALMONELLA TYPHIMURIUM, Strain/Indicator: TA1537, Metabolic Activation: NONE, Method: STANDARD PLATE",inactive; negative
same,mutagenic call,"Test System: AMES SALMONELLA TYPHIMURIUM, Strain/Indicator: TA1537, Metabolic Activation: RAT, LIVER, S-9, AROCLOR 1254, Method: STANDARD PLATE",inactive; negative
